Assay results reported in patent US20240108601A1, “TREATMENT OF MENTAL DISORDERS” (GH Research Ireland Limited, priority 2022, published 2024).
Several values for one entry are separate records, joined by “and”; a condition that tells them apart may be missing. Equal values may be shown once.

Test system: patients with treatment-resistant major depressive disorder (TRD)
Test: Phase 1/2 clinical trial of inhaled 5-MeO-DMT in treatment-resistant depression
Settings: for MADRS Concentration Difficulties % improvement / MADRS Concentration Difficulties improvement / MADRS Inability to Feel % improvement / MADRS Inability to Feel improvement / MADRS Inner Tension % improvement / MADRS Inner Tension improvement / MADRS Lassitude % improvement / MADRS Lassitude improvement / MADRS Pessimistic Thoughts % improvement / MADRS Pessimistic Thoughts improvement / MADRS Suicidal Thoughts % improvement / MADRS Suicidal Thoughts improvement / MADRS Suicidal Thoughts aggregated score / MADRS Inner Tension aggregated score / MADRS Lassitude aggregated score / MADRS Pessimistic Thoughts aggregated score / MADRS Concentration Difficulties aggregated score / MADRS Inability to Feel aggregated score / BPRS Anxiety % improvement / BPRS Anxiety improvement / BPRS Blunted Affect % improvement / BPRS Blunted Affect improvement / BPRS Emotional Withdrawal % improvement / BPRS Emotional Withdrawal improvement / BPRS Guilt Feelings % improvement / BPRS Guilt Feelings improvement / BPRS Tension % improvement / BPRS Tension improvement / BPRS Emotional Withdrawal aggregated score / BPRS Blunted Affect aggregated score / BPRS Tension aggregated score / BPRS Guilt Feelings aggregated score / BPRS Anxiety aggregated score / MADRS Reduced Sleep % improvement / MADRS Reduced Sleep improvement / MADRS Reduced Sleep aggregated score: IDR n=8; for MADRS Suicidal Thoughts aggregated score: baseline 11; for MADRS Inner Tension aggregated score: baseline 26; for MADRS Lassitude aggregated score: baseline 27; for MADRS Pessimistic Thoughts aggregated score: baseline 28; for MADRS Concentration Difficulties aggregated score: baseline 30; for MADRS Inability to Feel aggregated score: baseline 36; for BPRS Emotional Withdrawal aggregated score: baseline 13; for BPRS Blunted Affect aggregated score: baseline 15; for BPRS Tension aggregated score: baseline 16; for BPRS Guilt Feelings aggregated score: baseline 34; for BPRS Anxiety aggregated score: baseline 37; for MADRS Reduced Sleep aggregated score: baseline 25
Procedure: Patients were assigned to different groups. In the context of the present invention, the group who received a single, 12 mg dose and the group who underwent an intra-day individualized dosing regimen (IDR) that allowed for multiple, escalating doses (6 mg, 12 mg and 18 mg) within a single day, driven by the intensity of the patient-reported psychedelic experience are of interest.
The data gathered include the assessment of the treated patients against several scales including the Montgomery Åsberg Depression Rating Scale (MADRS) and the Brief Psychiatric Rating Scale (BPRS).
This trial was designed in two parts. Part A was an open-label, single-arm, single-dose Phase 1 trial with two dose levels (12 mg (n=4) and 18 mg (n=4)). […] The primary endpoint of Part B was to assess the effects on the severity of depression, as assessed by the proportion of patients in remission on day seven after dosing, defined as a MADRS total score of less than or equal to 10.

COc1ccc2[nH]cc(CCN(C)C)c2c1 [5-MeO-DMT]
MADRS Concentration Difficulties % improvement (2 h): 63% and 63.33% | MADRS Concentration Difficulties improvement (2 h): 19 points | MADRS Inability to Feel % improvement (2 h): 67% and 66.67% | MADRS Inability to Feel improvement (2 h): 24 points | MADRS Inner Tension % improvement (2 h): 58% and 57.69% | MADRS Inner Tension improvement (2 h): 15 points | MADRS Lassitude % improvement (2 h): 63% and 62.96% | MADRS Lassitude improvement (2 h): 17 points | MADRS Pessimistic Thoughts % improvement (2 h): 75% | MADRS Pessimistic Thoughts improvement (2 h): 21 points | MADRS Suicidal Thoughts % improvement (2 h): 73% and 72.72% | MADRS Suicidal Thoughts improvement (2 h): 8 points | MADRS Suicidal Thoughts aggregated score (2 h): 3 | MADRS Inner Tension aggregated score (2 h): 11 | MADRS Lassitude aggregated score (2 h): 10 | MADRS Pessimistic Thoughts aggregated score (2 h): 7 | MADRS Concentration Difficulties aggregated score (2 h): 11 | MADRS Inability to Feel aggregated score (2 h): 12 | BPRS Anxiety % improvement (3 h): 49% and 48.65% | BPRS Anxiety improvement (3 h): 18 points | BPRS Blunted Affect % improvement (3 h): 27% and 26.67% | BPRS Blunted Affect improvement (3 h): 4 points | BPRS Emotional Withdrawal % improvement (3 h): 38% and 38.46% | BPRS Emotional Withdrawal improvement (3 h): 5 points | BPRS Guilt Feelings % improvement (3 h): 59% and 58.82% | BPRS Guilt Feelings improvement (3 h): 20 points | BPRS Tension % improvement (3 h): 31% and 31.25% | BPRS Tension improvement (3 h): 5 points | BPRS Emotional Withdrawal aggregated score (3 h): 8 | BPRS Blunted Affect aggregated score (3 h): 11 | BPRS Tension aggregated score (3 h): 11 | BPRS Guilt Feelings aggregated score (3 h): 14 | BPRS Anxiety aggregated score (3 h): 19 | BPRS Anxiety % improvement (day 1): 57% and 56.76% | BPRS Anxiety improvement (day 1): 21 points | BPRS Blunted Affect % improvement (day 1): 47% and 46.67% | BPRS Blunted Affect improvement (day 1): 7 points | BPRS Emotional Withdrawal % improvement (day 1): 38% and 38.46% | BPRS Emotional Withdrawal improvement (day 1): 5 points | BPRS Guilt Feelings % improvement (day 1): 68% and 67.65% | BPRS Guilt Feelings improvement (day 1): 23 points | BPRS Tension % improvement (day 1): 31% and 31.25% | BPRS Tension improvement (day 1): 5 points | MADRS Concentration Difficulties % improvement (day 1): 97% and 96.67% | MADRS Concentration Difficulties improvement (day 1): 29 points | MADRS Inability to Feel % improvement (day 1): 94% and 94.44% | MADRS Inability to Feel improvement (day 1): 34 points | MADRS Inner Tension % improvement (day 1): 77% and 76.92% | MADRS Inner Tension improvement (day 1): 20 points | MADRS Lassitude % improvement (day 1): 81% and 81.48% | MADRS Lassitude improvement (day 1): 22 points | MADRS Pessimistic Thoughts % improvement (day 1): 86% and 85.71% | MADRS Pessimistic Thoughts improvement (day 1): 24 points | MADRS Reduced Sleep % improvement (day 1): 52% | MADRS Reduced Sleep improvement (day 1): 13 points | MADRS Suicidal Thoughts % improvement (day 1): 91% and 90.91% | MADRS Suicidal Thoughts improvement (day 1): 10 points | MADRS Suicidal Thoughts aggregated score (day 1): 1 | BPRS Emotional Withdrawal aggregated score (day 1): 8 | BPRS Blunted Affect aggregated score (day 1): 8 | BPRS Tension aggregated score (day 1): 11 | MADRS Reduced Sleep aggregated score (day 1): 12 | MADRS Inner Tension aggregated score (day 1): 6 | MADRS Lassitude aggregated score (day 1): 5 | MADRS Pessimistic Thoughts aggregated score (day 1): 4 | MADRS Concentration Difficulties aggregated score (day 1): 1 | BPRS Guilt Feelings aggregated score (day 1): 11 | MADRS Inability to Feel aggregated score (day 1): 2 | BPRS Anxiety aggregated score (day 1): 16 | BPRS Anxiety % improvement (day 7): 54% and 54.05% | BPRS Anxiety improvement (day 7): 20 points | BPRS Blunted Affect % improvement (day 7): 47% and 46.67% | BPRS Blunted Affect improvement (day 7): 7 points | BPRS Emotional Withdrawal % improvement (day 7): 38% and 38.46% | BPRS Emotional Withdrawal improvement (day 7): 5 points | BPRS Guilt Feelings % improvement (day 7): 71% and 70.59% | BPRS Guilt Feelings improvement (day 7): 24 points | BPRS Tension % improvement (day 7): 38% and 37.50% | BPRS Tension improvement (day 7): 6 points | MADRS Concentration Difficulties % improvement (day 7): 70% | MADRS Concentration Difficulties improvement (day 7): 21 points | MADRS Inability to Feel % improvement (day 7): 83% and 83.33% | MADRS Inability to Feel improvement (day 7): 30 points | MADRS Inner Tension % improvement (day 7): 54% and 53.85% | MADRS Inner Tension improvement (day 7): 14 points | MADRS Lassitude % improvement (day 7): 89% and 88.89% | MADRS Lassitude improvement (day 7): 24 points | MADRS Pessimistic Thoughts % improvement (day 7): 89% and 89.29% | MADRS Pessimistic Thoughts improvement (day 7): 25 points | MADRS Reduced Sleep % improvement (day 7): 64% | MADRS Reduced Sleep improvement (day 7): 16 points | MADRS Suicidal Thoughts % improvement (day 7): 73% and 72.73% | MADRS Suicidal Thoughts improvement (day 7): 8 points | MADRS Suicidal Thoughts aggregated score (day 7): 3 | BPRS Emotional Withdrawal aggregated score (day 7): 8 | BPRS Blunted Affect aggregated score (day 7): 8 | BPRS Tension aggregated score (day 7): 10 | MADRS Reduced Sleep aggregated score (day 7): 9 | MADRS Inner Tension aggregated score (day 7): 12 | MADRS Lassitude aggregated score (day 7): 3 | MADRS Pessimistic Thoughts aggregated score (day 7): 3 | MADRS Concentration Difficulties aggregated score (day 7): 9 | BPRS Guilt Feelings aggregated score (day 7): 10 | MADRS Inability to Feel aggregated score (day 7): 6 | BPRS Anxiety aggregated score (day 7): 17 | Patients maintaining remission (IDR, Day 7): 7/8 | Patients achieving remission (IDR, day 1): 8/8 | Patients achieving remission (IDR, within 2h after dosing): 5/8 | SAEs (Part A): No SAEs were reported | Changes in safety laboratory analyses, vital signs, psychiatric safety assessments, cognitive function (Part A and Part B): No clinically significant changes | Patients with at least one ADR (Part A, both groups (12 mg and 18 mg), all mild, resolved spontaneously): 3 of 4 | SAEs (Part B): No SAEs were reported | Patients with at least one ADR (Part B IDR n=8, all resolved spontaneously): 87.5% | Hypomania induction (TRD patients): no evidence of hypomania induction
